The text below walks through data of patent publication US6706740B2, “Fungicidal heterocyclic aromatic amides and their compositions, methods of use and preparation” (Dow AgroSciences LLC, priority 1999, dated 2004).

Series [1] has as its system Magnaporthe grisea (Pyricularia oryzae—PYRIOR). As to the kind of experiment: microbe, parasite or virus in culture. Type of series: cell-based. The following applies: Pyricularia oryzae, read-out: PYRIOR in vitro Growth Inhibition.
The subject of series [2] is Rhizoctonia solani (RHIZSO). As to the kind of experiment: microbe, parasite or virus in culture. The series is classed as cell-based. The following applies: Rhizoctonia solani, read-out: RHIZSO in vitro Growth Inhibition.
Series [3] concerns Mycosphaerella graminicola (Septoria tritici—SEPTTR). Briefly: In vitro fungal growth inhibition, Mycosphaerella graminicola (SEPTTR). Type of series: cell-based. To be noted: Zymoseptoria tritici, read-out: SEPTTR in vitro Growth Inhibition.
Series [4] deals with Stagonospora nodorum (Leptosphaeria nodorum—LEPTNO). Briefly: In vitro fungal growth inhibition, Stagonospora nodorum (LEPTNO). The series is classed as cell-based. The following applies: Leptosphaeria, read-out: LEPTNO in vitro Growth Inhibition.
Series [5] relates to Ustilago maydis (USTIMA). As to the kind of experiment: microbe, parasite or virus in culture. The following applies: Mycosarcoma maydis, read-out: USTIMA in vitro Growth Inhibition. Type of series: cell-based.
The test system of series [6] is Phytophthora infestans (PHYTIN). As to the kind of experiment: microbe, parasite or virus in culture. Type of series: cell-based. The following applies: Phytophthora infestans, read-out: PHYTIN in vitro Growth Inhibition.
In series [7] the test system is Phytophthora infestans—PHYTIN. Briefly: whole plant or invertebrate. Type of series: in vivo. To be noted: Phytophthora, in Solanum lycopersicum, 24 h, read-out: PHYTIN in vivo 1 Day Protectant.
Series [8] deals with Puccinia recondita—PUCCRT. Briefly: Brown Rust of Wheat, in vivo whole plant, 24 Hour Protectant. The following applies: Puccinia, read-out: PUCCRT in vivo 1 Day Protectant.
In series [9] the test system is Erysiphe graminis—ERYSGT. As to the kind of experiment: Powdery Mildew of Wheat, in vivo whole plant, 24 Hour Protectant. The following applies: Erysiphe, read-out: ERYSGT in vivo 1 Day Protectant.
Series [10] deals with Septoria tritici—SEPTTR. As to the kind of experiment: Leaf Blotch of Wheat, in vivo whole plant, 24 Hour Protectant. To be noted: Zymoseptoria tritici, 24 h, read-out: SEPTTR in vivo 1 Day Protectant.
For series [11], the system named is Leptosphaeria nodorum—LEPTNO. As to the kind of experiment: Glume Blotch of Wheat, in vivo whole plant, 24 Hour Protectant. To be noted: for pest or weed control at 100 ppm: Leptosphaeria, read-out: LEPTNO in vivo 1 Day Protectant.
[12] abbreviates: 100 ppm spray, wheat, 24 hour protectant, control of fungal infection vs untreated plants.
Where [13] appears, read: 100 ppm spray, 24 hour protectant, wheat, control of fungal infection vs untreated plants.
The mark [14] stands for this setting: wheat plants sprayed at 100 ppm, inoculated after 24 hours, control of fungal infection vs untreated plants.
[15] abbreviates: 100 ppm spray, wheat, 24 hour protectant, % control of fungal infection vs untreated plants.

Molecules are shown by their SMILES. Like-named read-outs stand apart in the source and are kept apart here.

Molecule `COc1ccnc(C(=O)Nc2ccc(Cc3cccc(C(F)(F)F)c3)cc2)c1O` [Compound 404] returned a melting point of 126 to 127 °C. Also, the inhibition at 25 ppm in series [1] is less than 80%. For the same molecule, the inhibition at 25 ppm in series [2] was less than 80%. In addition, the inhibition at 25 ppm in series [3] (25 ppm in growth medium) is less than 80%. Further, in [4] (25 ppm in growth medium), the inhibition at 25 ppm is less than 80%. Further, the inhibition at 25 ppm in series [5] is more than 80%. Further, the inhibition at 25 ppm in series [6] is less than 80%. Besides, the pest or weed control at 100 ppm in series [7] is less than 25%. The pest or weed control at 100 ppm in series [8] (setting [12]) was in the range of 25 to 74%. Besides, in series [9] (setting [12]), the pest or weed control at 100 ppm was 25 to 74%. The pest or weed control at 100 ppm in series [10] (setting [12]) is 25 to 74%. For the same molecule, in series [11] (setting [12]), the pest or weed control at 100 ppm fell in the range of 25 to 74%.

In the case of `CC(=O)OC1CCC(NC(=O)c2ncccc2O)CC1` (stereo not drawn) [Compound 209], the melting point was 123 to 126 °C. The inhibition at 25 ppm in series [1] is less than 80%. For the same molecule, the inhibition at 25 ppm in series [2] is less than 80%. Also, the inhibition at 25 ppm in series [3] (25 ppm in growth medium) was less than 80%. For the same molecule, the inhibition at 25 ppm in [4] (25 ppm in growth medium) was less than 80%. Also, in [5], the inhibition at 25 ppm is less than 80%. Moreover, the inhibition at 25 ppm in series [6] is less than 80%. In [7], the pest or weed control at 100 ppm is less than 25%. For the same molecule, the pest or weed control at 100 ppm in series [8] (setting [13]) was less than 25%. In addition, the pest or weed control at 100 ppm in [9] (setting [13]) was less than 25%. The pest or weed control at 100 ppm in series [10] (setting [13]) lay in the range of 25 to 74%. Further, in series [11] (setting [13]), the pest or weed control at 100 ppm was less than 25%.

As to `COc1ccnc(C(=O)N[C@H]2COC(=O)[C@H](Cc3ccccc3)[C@@H](OC(C)=O)[C@H](C)OC2=O)c1O` [Compound 385], the melting point lay within 194 to 196 °C. In addition, the inhibition at 25 ppm in [1] is less than 80%. In [2], the inhibition at 25 ppm was less than 80%. The inhibition at 25 ppm in series [3] (25 ppm in growth medium) was more than 80%. Besides, the inhibition at 25 ppm in series [4] (25 ppm in growth medium) was more than 80%. The inhibition at 25 ppm in series [5] was less than 80%. In addition, the inhibition at 25 ppm in [6] is less than 80%. For the same molecule, in [7], the pest or weed control at 100 ppm is 25 to 74%. For the same molecule, the pest or weed control at 100 ppm in series [8] (setting [12]) fell in the range of 25 to 74%. Besides, in series [9] (setting [12]), the pest or weed control at 100 ppm is less than 25%. In addition, the pest or weed control at 100 ppm in [10] (setting [12]) is 25 to 74%. Besides, the “LEPTNO in vivo 1 Day Protectant” value in [11] (setting [12]) is “+ +”.

`O=C(OC1CCC(NC(=O)c2ncccc2O)CC1)c1ccccc1` (stereo not drawn) [Compound 211]: the melting point is 154 to 157 °C. In addition, in series [1], the inhibition at 25 ppm is less than 80%. The inhibition at 25 ppm in series [2] was less than 80%. Besides, the inhibition at 25 ppm in series [3] (25 ppm in growth medium) was less than 80%. The inhibition at 25 ppm in series [4] (25 ppm in growth medium) is less than 80%. Further, the inhibition at 25 ppm in [5] is less than 80%. Moreover, in [6], the inhibition at 25 ppm was less than 80%. For the same molecule, the pest or weed control at 100 ppm in [7] is less than 25%. In addition, the pest or weed control at 100 ppm in [8] (setting [13]) was less than 25%. Moreover, the pest or weed control at 100 ppm in series [9] (setting [13]) is less than 25%. In [10] (setting [13]), the pest or weed control at 100 ppm is 25 to 74%. Further, the pest or weed control at 100 ppm in series [11] (setting [13]) is 25 to 74%.

`O=C(NC1CCCCC1)c1cccnc1O` [Compound 515]: the melting point was in the range of 190 to 192 °C. Moreover, the inhibition at 25 ppm in series [1] was less than 80%. Also, the inhibition at 25 ppm in [2] is less than 80%. Further, in series [3] (25 ppm in the growth medium), the inhibition at 25 ppm was less than 80%. The inhibition at 25 ppm in series [4] (25 ppm in the growth medium) is less than 80%. Moreover, the inhibition at 25 ppm in series [5] is less than 80%. In addition, the inhibition at 25 ppm in series [6] is less than 80%. The pest or weed control at 100 ppm in [7] was less than 25%. In addition, in series [8] (setting [14]), the pest or weed control at 100 ppm is less than 25%. For the same molecule, the pest or weed control at 100 ppm in series [9] (setting [14]) was less than 25%. Besides, the pest or weed control at 100 ppm in series [10] (setting [14]) fell in the range of 25 to 74%. Moreover, the pest or weed control at 100 ppm in [11] (setting [14]) was less than 25%.

For `O=C(NC(Cc1ccccc1)c1ccccc1)c1cccnc1O` (stereo not drawn) [Compound 519], the melting point lay in the range of 190 to 192 °C. For the same molecule, the inhibition at 25 ppm in series [1] is less than 80%. The inhibition at 25 ppm in [2] is less than 80%. Also, the inhibition at 25 ppm in [3] (25 ppm in the growth medium) is less than 80%. The inhibition at 25 ppm in series [4] (25 ppm in the growth medium) was less than 80%. Besides, in series [5], the inhibition at 25 ppm was less than 80%. In [6], the inhibition at 25 ppm was less than 80%. Moreover, the pest or weed control at 100 ppm in series [7] is less than 25%. For the same molecule, the pest or weed control at 100 ppm in series [8] (setting [14]) is less than 25%. The pest or weed control at 100 ppm in [9] (setting [14]) was less than 25%. The pest or weed control at 100 ppm in series [10] (setting [14]) is less than 25%. Moreover, in series [11] (setting [14]), the pest or weed control at 100 ppm was in the range of 25 to 74%.

Molecule `O=C(NCc1ccc(Cl)c(Cl)c1)c1cccnc1O` [Compound 517] returned a melting point of 229 to 230 °C. Also, in series [1], the inhibition at 25 ppm was less than 80%. For the same molecule, the inhibition at 25 ppm in [2] was less than 80%. Besides, the inhibition at 25 ppm in series [3] (25 ppm in the growth medium) is less than 80%. The inhibition at 25 ppm in series [4] (25 ppm in the growth medium) is less than 80%. The inhibition at 25 ppm in series [5] was less than 80%. Moreover, in [6], the inhibition at 25 ppm was less than 80%. Besides, the pest or weed control at 100 ppm in series [7] is less than 25%. Moreover, in series [8] (setting [14]), the pest or weed control at 100 ppm is less than 25%. Moreover, the pest or weed control at 100 ppm in series [9] (setting [14]) is less than 25%. In series [10] (setting [14]), the pest or weed control at 100 ppm is less than 25%. Besides, the pest or weed control at 100 ppm in series [11] (setting [14]) lay in the range of 25 to 74%.

As to `COc1ccnc(C(=O)N[C@H]2COC(=O)[C@H](Cc3ccccc3)[C@@H](OC(=O)C(C)(C)C)[C@H](C)OC2=O)c1O` [Compound 388], the melting point lay in the range of 212 to 214 °C. Besides, in series [1], the inhibition at 25 ppm was less than 80%. For the same molecule, the inhibition at 25 ppm in series [2] is less than 80%. In addition, the inhibition at 25 ppm in series [3] (25 ppm in growth medium) was more than 80%. Moreover, the inhibition at 25 ppm in series [4] (25 ppm in growth medium) was more than 80%. In series [5], the inhibition at 25 ppm was less than 80%. The inhibition at 25 ppm in [6] was less than 80%. The pest or weed control at 100 ppm in [7] was less than 25%. The pest or weed control at 100 ppm in [8] (setting [12]) was in the range of 25 to 74%. Besides, in series [9] (setting [12]), the pest or weed control at 100 ppm is less than 25%. Further, in [10] (setting [12]), the pest or weed control at 100 ppm lay in the range of 25 to 74%. The “LEPTNO in vivo 1 Day Protectant” value in series [11] (setting [12]) was “+ +”.

As to `Cc1nc(O)c(C(=O)N[C@H]2COC(=O)[C@H](Cc3ccccc3)[C@@H](OC(=O)C(C)C)[C@H](C)OC2=O)cc1Cl` [Compound 531], the melting point was 103 to 108 °C. For the same molecule, in series [1], the inhibition at 25 ppm was less than 80%. Also, the inhibition at 25 ppm in [2] was less than 80%. The inhibition at 25 ppm in series [3] (25 ppm in the growth medium) is less than 80%. In addition, in series [4] (25 ppm in the growth medium), the inhibition at 25 ppm is less than 80%. For the same molecule, in series [5], the inhibition at 25 ppm is less than 80%. Further, in [6], the inhibition at 25 ppm is less than 80%. Further, the pest or weed control at 100 ppm in [7] is less than 25%. Moreover, the pest or weed control at 100 ppm in series [8] (setting [14]) is less than 25%. Besides, the pest or weed control at 100 ppm in series [9] (setting [14]) was 25 to 74%. The pest or weed control at 100 ppm in [10] (setting [14]) lay within 25 to 74%. The pest or weed control at 100 ppm in series [11] (setting [14]) lay in the range of 25 to 74%.

In turn, `COc1ccnc(C(=O)Nc2ccc(NC(=O)c3cccc(C(F)(F)F)c3)cc2)c1OC(C)=O` [Compound 719] gave a melting point of 124 to 126 °C. Besides, in series [1], the inhibition at 25 ppm was less than 80%. Besides, in series [2], the inhibition at 25 ppm is less than 80%. Further, the inhibition at 25 ppm in series [3] (25 ppm in growth medium) was less than 80%. Moreover, the inhibition at 25 ppm in series [4] (25 ppm in growth medium) is less than 80%. In addition, the inhibition at 25 ppm in series [5] was less than 80%. The inhibition at 25 ppm in series [6] was less than 80%. Moreover, in series [7], the pest or weed control at 100 ppm was less than 25%. Also, the pest or weed control at 100 ppm in [8] (setting [15]) was less than 25%. The pest or weed control at 100 ppm in series [9] (setting [15]) is less than 25%. The pest or weed control at 100 ppm in [10] (setting [15]) is less than 25%. The pest or weed control at 100 ppm in [11] (setting [15]) was in the range of 25 to 74%.
